A word on the IC50: it is the concentration at which inhibition is half-maximal.

Consider 8 compounds from US20110312984A1, “STAT3 INHIBITORS” (priority 2008, published 2011).

“Also recorded” adds a separate entry of the source. Where two headings read alike, the source gives them in different places.

The target in one assay is T1, GFP-Stat3α (Homo sapiens, UniProt P40763).
T1 construct: expressed in transfected cells; host or cells: murine embryonic fibroblasts (MEF) deficient in endogenous Stat3
T1 sequence (P40763 whole entry): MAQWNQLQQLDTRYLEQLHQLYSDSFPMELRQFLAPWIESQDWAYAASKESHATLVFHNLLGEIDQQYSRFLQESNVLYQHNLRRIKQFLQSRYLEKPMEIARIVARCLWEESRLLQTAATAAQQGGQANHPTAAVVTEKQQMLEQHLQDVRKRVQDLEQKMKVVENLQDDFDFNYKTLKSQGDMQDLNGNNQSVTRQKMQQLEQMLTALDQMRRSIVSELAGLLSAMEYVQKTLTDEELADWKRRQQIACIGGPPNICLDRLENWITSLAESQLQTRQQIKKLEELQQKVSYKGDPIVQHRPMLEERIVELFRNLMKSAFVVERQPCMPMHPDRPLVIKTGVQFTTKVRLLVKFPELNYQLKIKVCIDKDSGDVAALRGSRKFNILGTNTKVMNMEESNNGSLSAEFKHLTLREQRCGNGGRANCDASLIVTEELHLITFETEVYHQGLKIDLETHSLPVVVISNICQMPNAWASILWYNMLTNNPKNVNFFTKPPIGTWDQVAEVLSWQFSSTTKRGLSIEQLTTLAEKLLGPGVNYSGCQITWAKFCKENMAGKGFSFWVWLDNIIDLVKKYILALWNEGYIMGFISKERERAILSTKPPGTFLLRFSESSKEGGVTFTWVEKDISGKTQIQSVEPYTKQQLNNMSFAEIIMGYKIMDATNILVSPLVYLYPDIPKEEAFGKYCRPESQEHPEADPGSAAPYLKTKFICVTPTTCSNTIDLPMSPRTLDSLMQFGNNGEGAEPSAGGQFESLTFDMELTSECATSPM
Nature of the assay: High-throughput fluorescence microscopy (HTFM), cytoplasm-to-nucleus translocation inhibition in MEF/GFP-Stat3α cells. The class given is cell-based, murine.

For another assay, the target named is T2, Stat3 (Homo sapiens, UniProt P40763).
T2 construct: endogenous in cells; host or cells: HepG2
T2 sequence (P40763 2-770 limits assumed): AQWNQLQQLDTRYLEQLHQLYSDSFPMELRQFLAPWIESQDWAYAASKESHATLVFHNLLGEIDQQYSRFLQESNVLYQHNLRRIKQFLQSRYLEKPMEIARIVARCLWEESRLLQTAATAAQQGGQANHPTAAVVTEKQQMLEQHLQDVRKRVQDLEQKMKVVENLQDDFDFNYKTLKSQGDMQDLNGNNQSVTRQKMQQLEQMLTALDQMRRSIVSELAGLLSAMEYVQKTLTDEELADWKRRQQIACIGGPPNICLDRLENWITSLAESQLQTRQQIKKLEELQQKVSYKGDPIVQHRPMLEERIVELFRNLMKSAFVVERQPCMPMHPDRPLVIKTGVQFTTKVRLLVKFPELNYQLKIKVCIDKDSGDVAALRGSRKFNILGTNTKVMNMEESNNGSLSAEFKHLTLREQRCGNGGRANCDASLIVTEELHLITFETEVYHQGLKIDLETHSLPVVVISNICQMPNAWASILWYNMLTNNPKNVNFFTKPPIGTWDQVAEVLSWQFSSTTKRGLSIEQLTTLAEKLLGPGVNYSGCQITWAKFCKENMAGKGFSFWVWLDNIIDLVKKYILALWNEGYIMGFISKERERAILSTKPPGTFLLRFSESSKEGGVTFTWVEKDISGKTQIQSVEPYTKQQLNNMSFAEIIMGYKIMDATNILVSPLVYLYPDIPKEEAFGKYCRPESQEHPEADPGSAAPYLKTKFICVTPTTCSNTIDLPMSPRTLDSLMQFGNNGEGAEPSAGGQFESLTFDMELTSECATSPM
Briefly: Immunoblot assay: IL-6-mediated phosphorylation of Stat3 in HepG2 cells. The class given is cell-based. As to the method:
Immunoblot assay. The human hepatocellular carcinoma cell line (HepG2) was grown in 6-well plates under standard conditions. […] Prestained molecular weight markers (Biorad, Hercules, Calif.) were included in each gel. […] Membranes were stripped between antibody probing using Restore™ Western Blot Stripping Buffer (Thermo Fisher Scientific Inc., Waltham, Mass.) per the manufacturer's instructions. Horseradish peroxidase-conjugated goat-anti-mouse IgG was used as the secondary antibody (Invitrogen Carlsbad, Calif.) and the membranes were developed with enhanced chemiluminescence (ECL) detection system (Amersham Life Sciences Inc.; Arlington Heights, Ill.).
Ligand-mediated pStat3 and pStat1 inhibition assays. […] Membranes are probed serially with antibody against Stat1 pY701 or Stat3 pY705 followed by antibody against Stat 1 or Stat3 (Transduction labs, Lexington, Ky.) then antibody against β-actin (Abcam, Cambridge, Mass.). Membranes are stripped between antibody probings using Restore™ Western Blot Stripping Buffer (Thermo Fisher Scientific Inc., Waltham, Mass.) per the manufacturer's instructions. Horseradish peroxidase-conjugated goat-anti-mouse IgG is used as the secondary antibody (Invitrogen Carlsbad, Calif.) and the membranes are developed with enhanced chemiluminescence (ECL) detection system (Amersham Life Sciences Inc.; Arlington Heights, Ill.). Band intensities are quantified by densitometry. The value of each pStat3 band is divided by its corresponding total Stat3 band intensity; the results are normalized to the DMSO-treated control value. This value was plotted as a function of the log compound concentration. The best-fitting curve is determined using 4-Parameter Logistic Model/Dose Response/XLfit 4.2, IDBS software and was used to calculate the IC50 value.
(In general: In western blotting, separated proteins are transferred to a membrane and probed.)

Another assay concerns the target T3, Stat1 (Homo sapiens, UniProt P42224).
T3 construct: endogenous in cells; host or cells: HepG2
T3 sequence (P42224 1-750): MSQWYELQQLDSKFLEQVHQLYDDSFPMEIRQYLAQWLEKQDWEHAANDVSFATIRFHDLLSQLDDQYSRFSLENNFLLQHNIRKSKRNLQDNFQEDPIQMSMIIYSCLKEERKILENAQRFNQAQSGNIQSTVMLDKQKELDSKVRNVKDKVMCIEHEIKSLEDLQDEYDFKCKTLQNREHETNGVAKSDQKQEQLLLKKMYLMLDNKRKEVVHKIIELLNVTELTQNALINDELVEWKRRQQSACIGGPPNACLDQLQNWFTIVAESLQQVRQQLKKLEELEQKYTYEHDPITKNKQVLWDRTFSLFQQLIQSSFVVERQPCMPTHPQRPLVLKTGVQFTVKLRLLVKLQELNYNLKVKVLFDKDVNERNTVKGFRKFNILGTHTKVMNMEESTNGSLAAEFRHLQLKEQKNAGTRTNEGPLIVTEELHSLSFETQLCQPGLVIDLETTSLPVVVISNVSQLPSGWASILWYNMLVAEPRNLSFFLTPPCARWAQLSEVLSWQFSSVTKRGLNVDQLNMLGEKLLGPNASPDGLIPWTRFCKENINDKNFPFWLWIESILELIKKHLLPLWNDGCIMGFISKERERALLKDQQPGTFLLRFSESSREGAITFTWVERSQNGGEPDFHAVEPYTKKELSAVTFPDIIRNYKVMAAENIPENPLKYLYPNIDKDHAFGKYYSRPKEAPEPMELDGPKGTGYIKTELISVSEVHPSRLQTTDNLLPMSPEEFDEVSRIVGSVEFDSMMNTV
Nature of the assay: Immunoblot assay: IFN-γ-mediated phosphorylation of Stat1 in HepG2 cells. The class given is cell-based. As to conditions: 300 μM, 1 hour at 37° C. before IFN-γ stimulation. The procedure: Immunoblot assay. The human hepatocellular carcinoma cell line (HepG2) was grown in 6-well plates under standard conditions. Cells were pretreated with compounds (0, 1, 3, 10, 30, 100 and 300 uM) for 1 hour then stimulated under optimal conditions with either interferon gamma (IFN-γ; 30 ng/ml for 30 min) to activate Stat1 or interleukin-6 (IL-6; 30 ng/ml for 30 min) to activate Stat3 (30-31). Cultures were then harvested and proteins extracted using high-salt buffer, as described (Shao et al., 2006). Briefly, extracts were mixed with 2× sodium dodecyl sulfate (SDS) sample buffer (125 mmol/L Tris-HCL pH 6.8; 4% SDS; 20% glycerol; 10% 2-mercaptoethanol) at a 1:1 ratio and heated for 5 minutes at 100° C. Proteins (20 μg) were separated by 7.5% SDS-PAGE and transferred to polyvinylidene fluoride (PVDF) membrane (Millipore, Waltham, Mass.) and immunoblotted. Prestained molecular weight markers (Biorad, Hercules, Calif.) were included in each gel. Membranes were probed serially with antibody against Stat1 pY^701 or Stat3 pY^705 followed by antibody against Stat1 or Stat3 (Transduction labs, Lexington, Ky.) then antibody against β-actin (Abcam, Cambridge, Mass.). Membranes were stripped between antibody probing using Restore™ Western Blot Stripping Buffer (Thermo Fisher Scientific Inc., Waltham, Mass.) per the manufacturer's instructions. Horseradish peroxidase-conjugated goat-anti-mouse IgG was used as the secondary antibody (Invitrogen Carlsbad, Calif.) and the membranes were developed with enhanced chemiluminescence (ECL) detection system (Amersham Life Sciences Inc.; Arlington Heights, Ill.).
EXP IIC. Ligand-mediated pStat3 and pStat1 inhibition assays. […] Briefly, human hepatocellular carcinoma cells (HepG2) are grown in 6-well plates and pretreated with compounds (0, 0.1, 0.3, 1, 3, 10, 30, 100 μM) for 1 hour then stimulated under optimal conditions with either interleukin-6 (IL-6; 30 ng/ml for 30 min) to activate Stat3 or interferon gamma (IFN-γ; 30 ng/ml for 30 min) to activate Stat1. Cells are harvested and proteins extracted using high-salt buffer, mixed with 2× sodium dodecyl sulfate (SDS) sample buffer (125 mmol/L Tris-HCL pH 6.8; 4% SDS; 20% glycerol; 10% 2-mercaptoethanol) at a 1:1 ratio then heated for 5 minutes at 100° C. Proteins (20 μg) are separated by 7.5% SDS-PAGE and transferred to polyvinylidene fluoride (PVDF) membrane (Millipore, Waltham, Mass.) and immunoblotted. Membranes are probed serially with antibody against Stat1 pY701 or Stat3 pY705 followed by antibody against Stat 1 or Stat3 (Transduction labs, Lexington, Ky.) then antibody against β-actin (Abcam, Cambridge, Mass.). Membranes are stripped between antibody probings using Restore™ Western Blot Stripping Buffer (Thermo Fisher Scientific Inc., Waltham, Mass.) per the manufacturer's instructions. Horseradish peroxidase-conjugated goat-anti-mouse IgG is used as the secondary antibody (Invitrogen Carlsbad, Calif.) and the membranes are developed with enhanced chemiluminescence (ECL) detection system (Amersham Life Sciences Inc.; Arlington Heights, Ill.). Band intensities are quantified by densitometry. The value of each pStat3 band is divided by its corresponding total Stat3 band intensity; the results are normalized to the DMSO-treated control value. This value was plotted as a function of the log compound concentration. The best-fitting curve is determined using 4-Parameter Logistic Model/Dose Response/XLfit 4.2, IDBS software and was used to calculate the IC50 value.

For a further assay, the system named is MDA-MB-231. The settings on record: 5 mg/kg every 2-3 days; cited from earlier work.
In another assay the test system is human leukemic cell line. Nature of the assay: Leukemic cell line (AML) apoptosis assay. The class given is cell-based.
Assay [1] concerns breast cancer cells with constitutively activated Stat3. The settings on record: cited from earlier work.
The next assay concerns the target T4, Stat3:hSIE complexes (Homo sapiens, UniProt P40763).
T4 construct: endogenous in cells; host or cells: HepG2
Nature of the assay: Electrophoretic mobility shift assay (EMSA) with hSIE probe, extracts of IL-6-stimulated HepG2 cells. The class given is biochemical. The settings on record: 300 μM, 60 minutes at 37° C. As to the method: Electrophoretic Mobility Shift Assay (EMSA): EMSA was performed using the hSIE radiolabeled duplex oligonucleotide as a probe as described (Tweardy et al., 1995). Briefly, high salt extracts were prepared from HepG2 cells incubated without or with IL-6 (30 ng/ml) for 30 minutes. Protein concentration was determined by Bradford Assay and 20 ug of extract was incubated with compound (300 uM) for 60 minutes at 37° C. […] Gels were dried and autoradiographed.
A general note: A gel shift assay detects complexes by their altered migration in electrophoresis.

[2] abbreviates: MEF/GFP-Stat3α, IL-6 200 ng/ml and IL-6sR 250 ng/ml 30 min, read-out: HTM IC50 (ligand-mediated nuclear translocation of GFP-Stat3α).
Setting [3] is: HepG2, compound 1 hour, IL-6 30 ng/ml 30 min, read-out: pStat3 IC50 (IL-6-mediated phosphorylation of Stat3).

T4 sequence (P40763 2-770 limits assumed, one chain of several): as the sequence (P40763 2-770 limits assumed) above
Experimental for GFP-Stat3α: Confocal and highthroughput fluorescence microscopy (HTFM) of MEF/GFP-Stat3α cells were performed as described (Huang et al., 2007). […] For HTFM, cells were seeded into 96-well CC3 plates at a density of 5,000 cells/well using an automated plating system. Cells were cultured under standard conditions until 85-90% confluent. Cells were pretreated with compound for 1 hour at 37° C. then stimulated with IL-6 (200 ng/ml) and IL-6sR (250 ng/ml) for 30 minutes. Cells fixed with 4% formaldehyde in PEM Buffer (80 mM Potassium PIPES, pH 6.8, 5 mM EGTA pH 7.0, 2 mM MgCl2) for 30 minutes at 4° C., quenched in 1 mg/ml of NaBH4 (Sigma) in PEM buffer and counterstained for 1 min in 4,6-diamidino-2-phenylindole (DAPI; Sigma; 1 mg/ml) in PEM buffer. […] Plates were analyzed by automated HTFM using the Cell Lab IC Image Cytometer (IC100) platform and CytoshopVersion 2.1 analysis software (Beckman Coulter). Nuclear translocation is quantified by using the fraction localized in the nucleus (FLIN) measurement (Sharp et al., 2006).
High throughput fluorescence microscopy (HTFM), cytoplasm-to-nucleus translocation inhibition assays. […] Briefly, cells are seeded into 96-well CC3 plates at a density of 5,000 cells/well and cultured under standard conditions until 85-90% confluent. Cells are pre-treated with compound for 1 hour at 37° C. then stimulated with IL-6 (100 ng/ml) and IL-6sR (150 ng/ml) for 30 minutes. Cells are fixed with 4% formaldehyde in PEM Buffer (80 mM Potassium PIPES, pH 6.8, 5 mM EGTA pH 7.0, 2 mM MgCl2) for 30 minutes at 4° C., quenched in 1 mg/ml of NaBH4 (Sigma) in PEM buffer and counterstained for 1 min in 4,6-diamidino-2-phenylindole (DAPI; Sigma; 1 mg/ml) in PEM buffer. Plates are analyzed by automated HTFM using the Cell Lab IC Image Cytometer (IC100) platform and CytoshopVersion 2.1 analysis software (Beckman Coulter).
Nuclear translocation is quantified by using the fraction localized in the nucleus (FLIN) measurement. […] The best-fitting curve and IC50 value are determined using 4-Parameter LogisticModel/Dose Response/XLfit 4.2, IDBS software.

In the case of `CCN1C(=O)C(=Cc2ccc(-c3cc(C(=O)O)ccc3Cl)o2)C(=O)N(CC)C1=S` [Cpd30-12, 4-chloro-3-{5-[(1,3-diethyl-4,6-dioxo-2-thioxotetrahydro-5(2H)-pyrimidinylidene)methyl]-2-furyl}benzoic acid], the IC50 was more than 300 µM against GFP-Stat3α and 60 µM against Stat3. Besides, at Stat1, the Stat1 phosphorylation blocked result is recorded as “blocked”.
For the compound `CCOc1cc(C=C2C(=O)c3ccccc3C2=O)cc(Cl)c1OCc1cccc(C(=O)O)c1` [Cpd3-2, 3-({2-chloro-4-[(1,3-dioxo-1,3-dihydro-2H-inden-2-ylidene)methyl]-6-ethoxyphenoxy}methyl)benzoic acid], the results for the IC50 on GFP-Stat3α (setting [2]) and at Stat3 (setting [3]) were 150 µM and 144 µM, respectively. On Stat1, the Stat1 phosphorylation blocked result is “did not”.
Turning to `CCN1C(=O)C(=Cc2ccc(-c3ccc(C(=O)O)cc3)o2)SC1=S` [Cpd30, 4-{5-[(3-ethyl-4-oxo-2-thioxo-1,3-thiazolidin-5-ylidene)methyl]-2-furyl}benzoic acid], the Stat1 phosphorylation blocked result at Stat1 was “did not”.
Take `Cc1ccc(S(=O)(=O)OCC(=O)Nc2ccc(C(=O)O)c(O)c2)cc1` [S3I-201]: in the assay on MDA-MB-231, the “growth of nude mice xenografts” value is “inhibited growth”.
Consider `COc1ccc(S(=O)(=O)Nc2cc(-c3c(O)ccc4ccccc34)c(O)c3ccccc23)cc1` [Cpd188-9], for which the “leukemic cell line apoptosis activity compared with parent Cpd188” value in the assay with human leukemic cell line is “one log better; also recorded: a log greater activity”.
In the case of `O=[N+]([O-])c1ccc2c(c1)S(=O)(=O)C=C2` [Stattic], in assay [1], the “active concentration range (binding, phosphorylation, translocation, DNA binding, apoptosis)” value was 5 to 20 µM.
Turning to `COC(=O)Cc1c(C)c2ccc(OCc3ccc(C(=O)OC)cc3)c(C)c2oc1=O` [Cpd3-7, methyl 4-({[3-(2-methyoxy-2-oxoethyl)-4,8-dimethyl-2-oxo-2H-chromen-7-yl]oxy}methyl)benzoate], the Stat1 phosphorylation blocked entry at Stat1 is given as “did not”.
On to `O=C(O)c1ccc(C=CC(=O)c2ccc3c(c2)OCCO3)cc1` [Cpd3, 4-[3-(2,3-dihydro-1,4-benzodioxin-6-yl)-3-oxo-1-propen-1-yl]benzoic acid], for which the IC50 at GFP-Stat3α (setting [2]) worked out at 131 µM; at Stat3 (setting [3]) it was 91 µM. In addition, at Stat3:hSIE complexes, the “amount of hSIE shifted (Stat3:hSIE band intensity)” value is given as “reduced the amount of hSIE shifted by half or greater”. Moreover, at Stat1, the Stat1 phosphorylation blocked entry was “did not”.
